Data reported in EP0968998A1, “Cosmetic compositions, ceramide analogues with anti-elastase activity and process for their preparation” (ELF ATOCHEM S.A., priority 1998, dated 2000).

Tests used:
[1] = target: T1, élastase de leucocytes humains (Homo sapiens, UniProt P08246); experiment: Anti-elastase activity: release of p-nitroaniline from N-succinyl-(Ala)3-p-nitroanilide, spectrophotometry at 410 nm; format: biochemical; details: pH 8, 37°C, pH8, 5 min preincubation, substrate 250 µM, read-out: % I (%)
T1 construct: purchased Elastin Products Co. SE 563; host or cells: human leukocytes, as the enzyme's name says
T1 sequence (P08246 30-267): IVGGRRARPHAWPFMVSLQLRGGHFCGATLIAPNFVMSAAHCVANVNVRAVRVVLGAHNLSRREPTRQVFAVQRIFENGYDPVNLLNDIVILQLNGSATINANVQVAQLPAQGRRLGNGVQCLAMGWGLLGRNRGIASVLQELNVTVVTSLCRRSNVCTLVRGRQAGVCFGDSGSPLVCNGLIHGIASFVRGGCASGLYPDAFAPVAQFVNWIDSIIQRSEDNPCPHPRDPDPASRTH
Description: Les exemples qui suivent permettent d'illustrer l'invention. Dans ces exemples, on utilise les méthodes d'analyse suivantes : - Spectrographie infrarouge (IR) Les spectres sont réalisés au moyen d'un appareil PERKIN ELMER 1760 IRTF, en dispersion dans KBr à 1 %. Les valeurs sont exprimées en nombre d'onde par centimètre. - Résonance magnétique nucléaire (RMN) Les spectres sont réalisés au moyen d'un appareil BRUCKER DRX 500, à 500 MHz (^1H) et 125 MHz (^13C) dans le DMSO-d6. La calibration de l'appareil est effectuée au moyen de DMSO. Les déplacements chimiques sont exprimés en ppm. L'aspect des signaux est noté : singulet (s), doublet (d), triplet (t), quadruplet (q), multiplet (m), quintuplet (*5) et couplage AB (AB). - Mesure de l'activité anti-élastase L'activité anti-élastase est mesurée selon la méthode qui consiste à faire réagir l'élastase de leucocytes humains (référence SE 563; Elastin Products Co.; Owensville, MO, USA) avec le N-succinyl-(Ala)3-p-nitroanilide (réf. S4760; Sigma) et mesurer la libération de p-nitroaniline. On utilise le N-succinyl-(Ala)3-p-nitroanilide en solution dans le tétrahydrofurane et une solution d'élastase à 100 mg/ml dans un mélange de glycérol et de tampon acétate de sodium (50/50; v/v), pH5. L'activité de l'enzyme est mesurée à 37°C dans 100 mM de tampon Tris-HCI, pH8 contenant 0,01 % de Triton X-100 (volume/volume) et 0,02 % d'azide de sodium (poids/volume). Le céramide à tester, solubilisé dans le tétrahydrofurane (concentration en THF = 0,5 % en volume) est préincubé en présence de l'enzyme (0,05 mg/ml) dans le tampon pendant 5 minutes à 37°C. On ajoute le N-succinyl-(Ala)3-p-nitroanilide (concentration finale : 250 µM) et on mesure la libération de la p-nitroaniline dans une cuve en quartz par spectrophotométrie à 410 nm. La capacité inhibitrice du céramide est exprimée en pourcentage d'inhibition (% I) selon la relation : %I = (1 -(Vi)/(Vo))×100 [formula] dans laquelle Vi et Vo sont les vitesses d'apparition de la p-nitroaniline en présence et en absence d'inhibiteur respectivement. - Mesure de l'amélioration de la barrière cutanée a) mesure de la Perte Insensible en Eau (PIE) La mesure de la PIE permet de quantifier la très faible quantité d'eau qui diffuse passivement à travers le stratum corneum. Ce paramètre représente un très bon index de la fonction barrière du stratum corneum. Cette méthode est surtout utilisée pour contrôler l'efficacité de formules cosmétiques qui, contenant certains types de lipides sont capables de diminuer la PIE et, en conséquence, d'empêcher la déshydratation du stratum corneum. La sonde est laissée en contact de la peau pendant 2 minutes environ de façon à atteindre une position d'équilibre. PIE = D'(dP)/(dx)(gradient de pression de vapeur) [formula] Les valeurs sont exprimées en g/m^2/heure et permettent de calculer un delta de PIE = PIE (peau traitée) - PIE (peau témoin). L'appareil utilisé est un Evaporimètre EPI de Servomed. Les mesures sont effectuées sur deux groupes de 15 volontaires sains ayant une peau sèche, avant l'application du produit (t=0) et après l'application (t=0,5 heure, 1 heure, 3 heures et 6 heures) sur la face interne des deux avant-bras. L'analogue de céramide selon l'invention ou le céramide témoin est incorporé dans une crème ayant la composition suivante (en % en poids) : […]

stratum corneum [2] = experiment: Skin barrier improvement: transepidermal (insensible) water loss (PIE), Servomed evaporimeter, cream applied to inner forearm; format: in vivo, volontaires sains ayant une peau sèche; details: for Perte Insensible en Eau (PIE) M±s: cream with 0,5 % (ex. 7, témoins), 1 % (ex. 4, 8), 5 % (ex. 6)
Description: (§1) Les exemples qui suivent permettent d'illustrer l'invention. […] Les valeurs sont exprimées en nombre d'onde par centimètre. - Résonance magnétique nucléaire (RMN) Les spectres sont réalisés au moyen d'un appareil BRUCKER DRX 500, à 500 MHz (^1H) et 125 MHz (^13C) dans le DMSO-d6. La calibration de l'appareil est effectuée au moyen de DMSO. Les déplacements chimiques sont exprimés en ppm. […] On utilise le N-succinyl-(Ala)3-p-nitroanilide en solution dans le tétrahydrofurane et une solution d'élastase à 100 mg/ml dans un mélange de glycérol et de tampon acétate de sodium (50/50; v/v), pH5. L'activité de l'enzyme est mesurée à 37°C dans 100 mM de tampon Tris-HCI, pH8 contenant 0,01 % de Triton X-100 (volume/volume) et 0,02 % d'azide de sodium (poids/volume). Le céramide à tester, solubilisé dans le tétrahydrofurane (concentration en THF = 0,5 % en volume) est préincubé en présence de l'enzyme (0,05 mg/ml) dans le tampon pendant 5 minutes à 37°C. On ajoute le N-succinyl-(Ala)3-p-nitroanilide (concentration finale : 250 µM) et on mesure la libération de la p-nitroaniline dans une cuve en quartz par spectrophotométrie à 410 nm. La capacité inhibitrice du céramide est exprimée en pourcentage d'inhibition (% I) selon la relation : %I = (1 -(Vi)/(Vo))×100 [formula] dans laquelle Vi et Vo sont les vitesses d'apparition de la p-nitroaniline en présence et en absence d'inhibiteur respectivement. - Mesure de l'amélioration de la barrière cutanée a) mesure de la Perte Insensible en Eau (PIE) La mesure de la PIE permet de quantifier la très faible quantité d'eau qui diffuse passivement à travers le stratum corneum. Ce paramètre représente un très bon index de la fonction barrière du stratum corneum. Cette méthode est surtout utilisée pour contrôler l'efficacité de formules cosmétiques qui, contenant certains types de lipides sont capables de diminuer la PIE et, en conséquence, d'empêcher la déshydratation du stratum corneum. La sonde est laissée en contact de la peau pendant 2 minutes environ de façon à atteindre une position d'équilibre. PIE = D'(dP)/(dx)(gradient de pression de vapeur) [formula] Les valeurs sont exprimées en g/m^2/heure et permettent de calculer un delta de PIE = PIE (peau traitée) - PIE (peau témoin). L'appareil utilisé est un Evaporimètre EPI de Servomed. Les mesures sont effectuées sur deux groupes de 15 volontaires sains ayant une peau sèche, avant l'application du produit (t=0) et après l'application (t=0,5 heure, 1 heure, 3 heures et 6 heures) sur la face interne des deux avant-bras. L'analogue de céramide selon l'invention ou le céramide témoin est incorporé dans une crème ayant la composition suivante (en % en poids) :
(§2) La teneur en analogue de céramide dans la crème est égale à 0,5 % (exemple 7), 1 % (exemples 4 et 8) et 5 % (exemple 6), et celle des céramides témoins (a) et (b) est égale à 0,5 %. La diminution des valeurs de PIE signifie une amélioration de la qualité de la barrière cutanée qui traduit un meilleur pouvoir retentionnel de l'eau au niveau de la couche cornée et donc une meilleure hydratation. b) hydratation cutanée L'eau peut être considérée comme un dipôle électrique capable de conduire l'électricité. Le transport d'électricité dans un champ donné est proportionnel à la quantité d'eau présente dans le stratum corneum. Plus une peau est riche en eau et plus le courant électrique passe rapidement entre 2 électrodes. Il existe donc un lien entre l'hydratation du stratum corneum et les modifications des propriétés électriques. Les mesures de capacitance, liée à la constante diélectrique de la peau, sont réalisées par le Cornéomètre Courage+Khazaka CM 200, dont la sonde présente une surface de contact avec la peau de 49 mm^2; cette sonde est appliquée avec une pression constante sur la surface cutanée à mesurer, et l'indice d'hydratation directement proportionnel au taux hydrique de surface est instantané.

stratum corneum [3] = experiment: Skin hydration: capacitance measurement (Corneometer Courage+Khazaka CM 200), hydration index, cream applied to forearm; format: in vivo, volontaires sains ayant une peau sèche; details: for Indice d'Hydratation (IH) M±s: cream with 0,5 % (ex. 7, témoins), 1 % (ex. 4, 8), 5 % (ex. 6)
Description: as §1, §2

[4] = t=0 heure (before application, baseline)

inhibition at 250 µM ([1]; Concentration 250 µM) [%]	inhibition at 500 µM ([1]; Concentration 500 µM) [%]	Compound	Perte Insensible en Eau (PIE) M±s (stratum corneum [2]; t=0,5 heure after application)	Perte Insensible en Eau (PIE) M±s (stratum corneum [2]; [4])	Perte Insensible en Eau (PIE) M±s (stratum corneum [2]; t=1 heure after application)	Perte Insensible en Eau (PIE) M±s (stratum corneum [2]; t=3 heures after application)	Perte Insensible en Eau (PIE) M±s (stratum corneum [2]; t=6 heures after application)	Indice d'Hydratation (IH) M±s (stratum corneum [3]; t=0,5 heure after application)	Indice d'Hydratation (IH) M±s (stratum corneum [3]; [4])	Indice d'Hydratation (IH) M±s (stratum corneum [3]; t=1 heure after application)	Indice d'Hydratation (IH) M±s (stratum corneum [3]; t=3 heures after application)	Indice d'Hydratation (IH) M±s (stratum corneum [3]; t=6 heures after application)	Indice d'Hydratation (IH) % évol. (stratum corneum [3]; t=3 heures versus t=0) [%]	Perte Insensible en Eau (PIE) % évol. (stratum corneum [2]; t=6 heures versus t=0) [%]
8	57	CCCCCCCCCCCCCCCC(=O)NC(C)(CO)COC(=O)CCCCCCCCCCCCCCC (stereo not drawn) [Exemple 2, 1-palmitoyl-2-méthyl-2-palmitoylamino-1,3-propanediol]	–	–	–	–	–	–	–	–	–	–	–	–
–	–	CCCCCCCCCCCCCCCCCC(=O)NC(C)(CO)COC(=O)CCCCCCCCCCCCCCCCC (stereo not drawn) [Exemple 7, 1-stéaroyl-2-méthyl-2-stéaroylamino-1,3-propanediol]	4,07±1,72 g/m^2/heure	4,50±2,0 g/m^2/heure	3,78±1,67 g/m^2/heure	3,70±1,50 g/m^2/heure	4,46±1,64 g/m^2/heure	66,13±5,48	60,13±6,27	65,56±6,24	63,82±7,05	61,55±6,32	–	–
–	–	N-stéaroyl-D,L-sphingosine [Témoin (a), reference compound]	3,91±1,40 g/m^2/heure	4,40±0,90 g/m^2/heure	3,37±1,00 g/m^2/heure	4,20±1,09 g/m^2/heure	4,11±1,41 g/m^2/heure	67,11±7,74	63,95±8,45	67,93±9,08	62,67±6,59	63,47±6,46	–	–
–	–	CCCCCCCCCCCCCCCCCC(=O)N[C@@H](CO)[C@H](O)[C@H](O)CCCCCCCCCCCCCC [Témoin (b), N-stéaroyl phytosphingosine, reference compound]	4,09±1,86 g/m^2/heure	4,22±2,17 g/m^2/heure	3,80±1,75 g/m^2/heure	3,53±1,57 g/m^2/heure	4,36±1,82 g/m^2/heure	67,55±7,89	61,00±7,21	67,45±7,33	63,20±5,36	61,36±3,79	–	–
–	–	CCCCCCCCCCCCCCCCCC(=O)NC(CO)(CO)COC(=O)CCCCCCCCCCCCCCCCC [Exemple 8, 1-stéaroyl-2-hydroxyméthyl-2-stéaroylamino-1,3-propanediol]	4,28±1,38 g/m^2/heure	4,52±1,02 g/m^2/heure	3,12±1,11 g/m^2/heure	4,62±1,14 g/m^2/heure	4,55±1,39 g/m^2/heure	67,16±7,98	64,13±8,01	67,04±7,74	64,13±8,37	64,87±7,83	0	–
–	–	CCCCCCCC/C=C\CCCCCCCC(=O)NC(CC)(CO)COC(=O)CCCCCCC/C=C\CCCCCCCC (stereo not drawn) [Exemple 6, 1-oléoyl-2-éthyl-2-oléoylamino-1,3-propanediol]	3,67±1,34 g/m^2/heure	3,96±1,60 g/m^2/heure	3,48±1,19 g/m^2/heure	3,39±1,20 g/m^2/heure	3,97±1,20 g/m^2/heure	78,53±6,23	61,91±6,90	75,29±7,78	67,05±5,61	64,56±6,14	–	0
